Measured values: ChEMBL document CHEMBL5705884, “Breaching the DNA damage checkpoint via PF-00477736, a novel small-molecule inhibitor of checkpoint kinase 1” (Mol Cancer Ther, 2008)
Active and inactive are the calls of the source. The calls are words filed in the database; no cut-off is given here.

Columns and labels:
MDA-MB-231 = assay: Potentiation factor, ratio of IC50 for human MDA-MB-231 cells to IC50 for human MDA-MB-231 cells in presence of gemcitabine; assay type: functional
HT-29 [1] = assay: Induction of apoptosis in gemcitabine induced human HT-29 cells assessed as apoptotic cell death measured after 24 hrs by PI staining based flow cytometry analysis (reference value: 0.7%); assay type: functional
COLO 205 [2] = assay: Antitumor activity against human COLO 205 cells xenografted in athymic nude mouse model assessed as gross log cell kill at 4 mg/kg, ip administered twice daily in presence of gemcitabine (Gemcitabine alone = 0.5%); assay type: functional
HT-29 [3] = assay: Induction of DNA damage in gemcitabine induced human HT-29 cells assessed as increase in intensity of H2AX phosphorylation at 360 nM measured after 24 hrs by immunoblot analysis; assay type: functional, cell-based
COLO 205 [4] = assay: Antitumor activity against human COLO 205 cells xenografted in athymic nude mouse model assessed as tumor growth inhibition at 30 mg/kg, ip administered twice daily in presence of gemcitabine (Gemcitabine alone = 40%); assay type: functional; conditions: read-out: TGI
COLO 205 [5] = assay: Antitumor activity against human COLO 205 cells xenografted in athymic nude mouse model assessed as tumor growth inhibition at 7.5 mg/kg, ip administered twice daily in presence of gemcitabine (Gemcitabine alone = 40%); assay type: functional; conditions: read-out: TGI
COLO 205 [6] = assay: Antitumor activity against human COLO 205 cells xenografted in athymic nude mouse model assessed as tumor growth inhibition at 15 mg/kg, ip administered once daily in presence of gemcitabine (Gemcitabine alone = 40%); assay type: functional; conditions: read-out: TGI
COLO 205 [7] = assay: Antitumor activity against human COLO 205 cells xenografted in athymic nude mouse model assessed as tumor growth delay by measuring test to control tumor ratio at 15 mg/kg, ip administered twice daily in presence of gemcitabine (Gemcitabine alone = 3%); assay type: functional
HT-29 [8] = assay: Inhibition of camptothecin induced DNA damage in human HT-29 cells assessed as increase in mitotic index by measuring histone H3 phosphorylation at S10 residue at 0.001 to 1 uM measured after 16 hrs presence of nocodazole by dot blot assay; assay type: functional, cell-based; conditions: HT-29, 16 h
HeLa = assay: Inhibition of camptothecin induced DNA damage in human HeLa cells assessed as increase in mitotic index by measuring histone H3 phosphorylation at S10 residue at 0.001 to 1 uM measured after 16 hrs presence of nocodazole by dot blot assay; assay type: functional, cell-based
HT-29 [9] = assay: Upregulation of cyclin B level in gemcitabine induced human HT-29 cells at 360 nM measured after 10 hrs by immunoblot analysis; assay type: functional, cell-based
K562 = assay: Potentiation factor, ratio of IC50 for human K562 cells to IC50 for human K562 cells in presence of carboplatin; assay type: functional
PC-3 [10] = assay: Potentiation factor, ratio of IC50 for human PC-3 cells to IC50 for human PC-3 cells in presence of doxorubicin; assay type: functional
COLO 205 [11] = assay: In vivo inhibition of Chk1 in athymic nude mouse xenografted with gemcitabine treated human COLO 205 cells assessed as increase in phospho histone H2AX level at 7.5 to 15 mg/kg by immunohistochemical analysis; assay type: functional, organism-based; conditions: dose 7.5-15 mg/kg
HT-29 [12] = assay: Potentiation factor, ratio of IC50 for human HT-29 cells to IC50 for human HT-29 cells in presence of gemcitabine; assay type: functional
[13] = AUC (0 to infinity) in nu/nu mouse at 20 mg/kg, ip by LCMS analysis; assay type: ADME, organism-based; conditions: in vivo
COLO 205 [14] = assay: In vivo inhibition of Chk1 in athymic nude mouse xenografted with gemcitabine treated human COLO 205 cells assessed as increase in histone H3 phosphorylation level at Ser10 residues at 7.5 to 15 mg/kg by immunohistochemical analysis; assay type: functional, organism-based; conditions: dose 7.5-15 mg/kg
PC-3 [15] = assay: Potentiation factor, ratio of IC50 for human PC-3 cells to IC50 for human PC-3 cells in presence of SN-38; assay type: functional
COLO 205 [16] = assay: Antitumor activity against human COLO 205 cells xenografted in athymic nude mouse model assessed as tumor growth inhibition at 40 mg/kg, ip administered twice daily in presence of gemcitabine (Gemcitabine alone= 58%); assay type: functional; conditions: read-out: TGI
HT-29 [17] = assay: Cytotoxicity in human HT-29 cells assessed as cell survival at 540 nM measured after 4 to 48 hrs by coulter counter method relative to control; assay type: functional; conditions: time 4-48 hrs, read-out: Activity
[18] = Cmax in nu/nu mouse at 4 mg/kg, ip by LCMS analysis; assay type: ADME, organism-based; conditions: in vivo
HT-29 [19] = assay: Cytotoxicity in human HT-29 cells assessed as cell survival at 360 nM measured after 4 to 48 hrs by coulter counter method relative to control; assay type: functional; conditions: time 4-48 hrs, read-out: Activity
COLO 205 [20] = assay: Antitumor activity against human COLO 205 cells xenografted in athymic nude mouse model assessed as gross log cell kill at 15 mg/kg, ip administered once daily in presence of gemcitabine (Gemcitabine alone = 0.27%); assay type: functional
COLO 205 [21] = assay: Antitumor activity against human COLO 205 cells xenografted in athymic nude mouse model assessed as gross log cell kill at 40 mg/kg, ip administered twice daily in presence of gemcitabine (Gemcitabine alone = 0.5%); assay type: functional
COLO 205 [22] = assay: Antitumor activity against human COLO 205 cells xenografted in athymic nude mouse model assessed as tumor growth inhibition at 4 mg/kg, ip administered once daily in presence of gemcitabine (Gemcitabine alone= 58%); assay type: functional; conditions: read-out: TGI
COLO 205 [23] = assay: Antitumor activity against human COLO 205 cells xenografted in athymic nude mouse model assessed as potentiated tumor growth inhibition at 15 mg/kg, ip administered twice daily in presence of gemcitabine relative to control; assay type: functional; conditions: read-out: TGI
COLO 205 [24] = assay: Antitumor activity against human COLO 205 cells xenografted in athymic nude mouse model assessed as gross log cell kill at 7.5 mg/kg, ip administered once daily in presence of gemcitabine (Gemcitabine alone = 0.27%); assay type: functional
COLO 205 [25] = assay: Antitumor activity against human COLO 205 cells xenografted in athymic nude mouse model assessed as potentiated tumor growth inhibition at 7.5 mg/kg, ip administered twice daily in presence of gemcitabine relative to control; assay type: functional; conditions: read-out: TGI
COLO 205 [26] = assay: Antitumor activity against human COLO 205 cells xenografted in athymic nude mouse model assessed as tumor growth inhibition at 7.5 mg/kg, ip administered once daily in presence of gemcitabine (Gemcitabine alone = 40%); assay type: functional; conditions: read-out: TGI
COLO 205 [27] = assay: Antitumor activity against human COLO 205 cells xenografted in athymic nude mouse model assessed as tumor growth inhibition at 24 mg/kg, ip administered twice daily in presence of gemcitabine (Gemcitabine alone= 58%); assay type: functional; conditions: read-out: TGI
COLO 205 [28] = assay: Antitumor activity against human COLO 205 cells xenografted in athymic nude mouse model assessed as tumor growth delay by measuring test to control tumor ratio at 30 mg/kg, ip administered once daily in presence of gemcitabine (Gemcitabine alone = 3%); assay type: functional
COLO 205 [29] = assay: Antitumor activity against human COLO 205 cells xenografted in athymic nude mouse model assessed as potentiated tumor growth inhibition at 24 mg/kg, ip administered twice daily in presence of gemcitabine relative to control; assay type: functional; conditions: read-out: TGI
HT-29 [30] = assay: Potentiation of camptothecin induced cytotoxicity in human HT-29 cells assessed as cell survival at 360 nM measured after 4 to 48 hrs by coulter counter method relative to camptothecin alone; assay type: functional; conditions: time 4-48 hrs, read-out: Activity
PC-3 [31] = assay: Antiproliferative activity against human PC-3 cells deficit of p53 expression assessed as inhibition of cell growth measured after 96 hrs by MTT assay; assay type: functional, cell-based; conditions: PC-3, 96 h

Cn1cc(-c2[nH]c3cc(NC(=O)[C@H](N)C4CCCCC4)cc4c3c2C=NNC4=O)cn1
PF50 (MDA-MB-231): 3.6
Activity (HT-29 [1]): 5.2%
LCK (COLO 205 [2]): 0.5
Activity (HT-29 [3]): Active
inhibition in vivo at 30 mg/kg (COLO 205 [4]): 78%
inhibition in vivo at 7.5 mg/kg (COLO 205 [5]): 70%
inhibition in vivo at 15 mg/kg (COLO 205 [6]): 67%
T/C (COLO 205 [7]): 11.25
EC50 (HT-29 [8]): 42 nM
EC50 (HeLa): 38 nM
Activity (HT-29 [9]): Active
PF50 (K562): 1.9
PF50 (PC-3 [10]): 1.5
inhibition (COLO 205 [11]): Active
PF50 (HT-29 [12]): 9
AUC(0-inf) [13]: 2670 ng·h/mL
inhibition (COLO 205 [14]): Active
PF50 (PC-3 [15]): 1.3
inhibition in vivo at 40 mg/kg (COLO 205 [16]): 90%
viability at 0.54 µM (HT-29 [17]): 83%
Cmax [18]: 270 ng/mL
viability at 0.36 µM (HT-29 [19]): 93%
LCK (COLO 205 [20]): 0.71
LCK (COLO 205 [21]): 1.25
inhibition in vivo at 4 mg/kg (COLO 205 [22]): 58%
inhibition in vivo at 15 mg/kg (COLO 205 [23]): 44%
LCK (COLO 205 [24]): 0.52
inhibition in vivo at 7.5 mg/kg (COLO 205 [25]): 50%
inhibition in vivo at 7.5 mg/kg (COLO 205 [26]): 54%
inhibition in vivo at 24 mg/kg (COLO 205 [27]): 81%
T/C (COLO 205 [28]): 7.25
inhibition in vivo at 24 mg/kg (COLO 205 [29]): 55%
viability at 0.36 µM (HT-29 [30]): 84%
IC50 (PC-3 [31]): 1600 nM
